Publication PMC6364417, “Kinase inhibitor library screening identifies synergistic drug combinations effective in sensitive and resistant melanoma cells” (Journal of Experimental & Clinical Cancer Research : CR, 2019)

How the values were obtained:
Experiment in all cases: Kinase inhibitor library screening, PrestoBlue cell viability, 1 or 10 μM, 72 h
501Mel cells (parental) = details: 72 h; for Cell viability in kinase inhibitor library screening, 501Mel Parental, 1μΜ / Cell viability in kinase inhibitor library screening, 501Mel Parental, 10μΜ: in %; for Cell viability in kinase inhibitor library screening, 501Mel Parental, 1μΜ / Cell viability in kinase inhibitor library screening, 501Mel Parental, 10μΜ / cell viability (kinase inhibitor library screening): 501Mel Parental
Experimental: (§1) After 72 h of treatment, cell viability was assessed using the PrestoBlue Cell Viability Reagent (ThermoFisher Scientific). Measurements were performed with the CLARIOstar Monochromator microplate reader (BMG Labtech).
(§2) Kinase inhibitor library screening. […] Each cell line was treated in its sensitive form (parental), and also as 2 resistant derivatives, which were made resistant to either Vemurafenib (XP) or Dabrafenib (GP). Drugs were added at 2 different concentrations, 1 and 10 μM, for 72 h and cell viability was assessed using the PrestoBlue Cell Viability assay. Results are depicted as % viability compared to untreated cells. Each cell line was analyzed at least in duplicate. […] (XLSX 95 kb)

[1] = system: 501Mel-GP cells (Dabrafenib-resistant); details: 72 h
Experimental: as §1, §2

[2] = system: IGR37-XP cells (Vemurafenib-resistant); details: for Cell viability in kinase inhibitor library screening, IGR37 XP, 10μΜ / Cell viability in kinase inhibitor library screening, IGR37 XP, 1μΜ / cell viability (kinase inhibitor library screening): 72 h, IGR37 XP; for Cell viability in kinase inhibitor library screening, IGR37 XP, 1μΜ: in %
Experimental: as §1, §2

[3] = system: A375-XP cells (Vemurafenib-resistant); details: for Cell viability in kinase inhibitor library screening, A375 XP, 1μΜ / Cell viability in kinase inhibitor library screening, A375 XP, 10μΜ / cell viability (kinase inhibitor library screening): 72 h, A375 XP
Experimental: as §1, §2

[4] = system: A375-GP cells (Dabrafenib-resistant); details: for Cell viability in kinase inhibitor library screening, A375 GP, 1μΜ / Cell viability in kinase inhibitor library screening, A375 GP, 10μΜ / cell viability (kinase inhibitor library screening): 72 h, A375 GP
Experimental: as §1, §2

[5] = system: 501Mel-XP cells (Vemurafenib-resistant); details: 72 h; for Cell viability in kinase inhibitor library screening, 501Mel XP, 1μΜ / Cell viability in kinase inhibitor library screening, 501Mel XP, 10μΜ: in %; for Cell viability in kinase inhibitor library screening, 501Mel XP, 1μΜ / Cell viability in kinase inhibitor library screening, 501Mel XP, 10μΜ / cell viability (kinase inhibitor library screening): 501Mel XP
Experimental: as §1, §2

A375 cells (parental) = details: for Cell viability in kinase inhibitor library screening, A375 Parental, 10μΜ / Cell viability in kinase inhibitor library screening, A375 Parental, 1μΜ / cell viability (kinase inhibitor library screening): 72 h, A375 Parental
Experimental: as §1, §2

[6] = system: IGR37-GP cells (Dabrafenib-resistant); details: for Cell viability in kinase inhibitor library screening, IGR37 GP, 10μΜ / Cell viability in kinase inhibitor library screening, IGR37 GP, 1μΜ / cell viability (kinase inhibitor library screening): 72 h, IGR37 GP; for Cell viability in kinase inhibitor library screening, IGR37 GP, 1μΜ: in %
Experimental: as §1, §2

IGR37 cells (parental) = system: IGR37 cells (parental)
Experimental: as §1, §2

[7] = IGR37 Parental, 10μΜ, 72 h, in %

Cc1ccc(NC(=O)c2cccc(C(C)(C)C#N)c2)cc1Nc1ccc2ncn(C)c(=O)c2c1 [AZ628]
Cell viability in kinase inhibitor library screening, 501Mel Parental, 1μΜ (501Mel cells (parental); 1μΜ): 59.7 | Cell viability in kinase inhibitor library screening, 501Mel Parental, 10μΜ (501Mel cells (parental); 10μΜ): 64.1 | Cell viability in kinase inhibitor library screening, 501Mel GP, 10μΜ ([1]; 501Mel GP, 10μΜ, in %): 83.3 | Cell viability in kinase inhibitor library screening, IGR37 XP, 10μΜ ([2]; 10μΜ): 15.2% | Cell viability in kinase inhibitor library screening, IGR37 XP, 1μΜ ([2]; 1μΜ): 60.5 | Cell viability in kinase inhibitor library screening, A375 XP, 1μΜ ([3]; 1μΜ): 20.4 | Cell viability in kinase inhibitor library screening, A375 XP, 10μΜ ([3]; 10μΜ): 13.2 | Cell viability in kinase inhibitor library screening, A375 GP, 1μΜ ([4]; 1μΜ): 19.6 | Cell viability in kinase inhibitor library screening, A375 GP, 10μΜ ([4]; 10μΜ): 21.0 | Cell viability in kinase inhibitor library screening, 501Mel XP, 1μΜ ([5]; 1μΜ): 116.3 | Cell viability in kinase inhibitor library screening, 501Mel XP, 10μΜ ([5]; 10μΜ): 79.0 | Cell viability in kinase inhibitor library screening, A375 Parental, 10μΜ (A375 cells (parental); 10μΜ): 23.0 | Cell viability in kinase inhibitor library screening, A375 Parental, 1μΜ (A375 cells (parental); 1μΜ): 26.2 | Cell viability in kinase inhibitor library screening, IGR37 GP, 10μΜ ([6]; 10μΜ): 55.7% | Cell viability in kinase inhibitor library screening, IGR37 GP, 1μΜ ([6]; 1μΜ): 78.8 | Cell viability in kinase inhibitor library screening, IGR37 Parental, 1μΜ (IGR37 cells (parental); IGR37 Parental, 1μΜ, 72 h, in %): 45.5 | Cell viability in kinase inhibitor library screening, IGR37 Parental, 10μΜ (IGR37 cells (parental); [7]): 41.8

Cc1cc(Nc2nc(N[C@@H](C)c3ccc(F)cc3)c(C#N)cc2F)[nH]n1 [AZ 960]
viability at 1 µM (501Mel cells (parental); Homo sapiens, read-out: cell viability, 501Mel Parental, 1μΜ): 49.1% | viability at 10 µM (501Mel cells (parental); Homo sapiens, read-out: cell viability, 501Mel Parental, 10μΜ): 65.1% | viability at 1 µM ([1]; Homo sapiens, read-out: cell viability, 501Mel GP, 1μΜ): 34.2% | viability at 10 µM ([1]; Homo sapiens, read-out: cell viability, 501Mel GP, 10μΜ): 66.8% | viability at 1 µM ([2]; Homo sapiens, IGR-37, 72 h, read-out: cell viability, IGR37 XP, 1μΜ): 81.1% | viability at 10 µM ([2]; Homo sapiens, IGR-37, 72 h, read-out: cell viability, IGR37 XP, 10μΜ): 39.7% | viability at 1 µM ([3]; Homo sapiens, A-375, 72 h, read-out: cell viability, A375 XP, 1μΜ): 61.3% | viability at 10 µM ([3]; Homo sapiens, A-375, 72 h, read-out: cell viability, A375 XP, 10μΜ): 46.1% | viability at 1 µM ([4]; Homo sapiens, A-375, 72 h, read-out: cell viability, A375 GP, 1μΜ): 44% | viability at 10 µM ([4]; Homo sapiens, A-375, 72 h, read-out: cell viability, A375 GP, 10μΜ): 37.8% | viability at 1 µM ([5]; Homo sapiens, read-out: cell viability, 501Mel XP, 1μΜ): 39.4% | viability at 10 µM ([5]; Homo sapiens, read-out: cell viability, 501Mel XP, 10μΜ): 60.4% | viability at 1 µM (A375 cells (parental); Homo sapiens, A-375, 72 h, read-out: cell viability, A375 Parental, 1μΜ): 48.9% | viability at 10 µM (A375 cells (parental); Homo sapiens, A-375, 72 h, read-out: cell viability, A375 Parental, 10μΜ): 40% | viability at 1 µM ([6]; Homo sapiens, IGR-37, 72 h, read-out: cell viability, IGR37 GP, 1μΜ): 87.2% | viability at 10 µM ([6]; Homo sapiens, IGR-37, 72 h, read-out: cell viability, IGR37 GP, 10μΜ): 73.9% | viability at 1 µM (IGR37 cells (parental); Homo sapiens, IGR-37, 72 h, read-out: cell viability, IGR37 Parental, 1μΜ): 83.9% | viability at 10 µM (IGR37 cells (parental); Homo sapiens, IGR-37, 72 h, read-out: cell viability, IGR37 Parental, 10μΜ): 90.7%

CNC(=O)c1cccc(-c2ccc3c(N4CCOC[C@@H]4C)nc(N4CCOC[C@@H]4C)nc3n2)c1 [AZD2014]
Cell viability in kinase inhibitor library screening, 501Mel Parental, 1μΜ (501Mel cells (parental); 1μΜ): 39.4 | Cell viability in kinase inhibitor library screening, 501Mel Parental, 10μΜ (501Mel cells (parental); 10μΜ): 8.5 | Cell viability in kinase inhibitor library screening, 501Mel GP, 1μΜ ([1]; 501Mel GP, 1μΜ, in %): 28.3 | Cell viability in kinase inhibitor library screening, 501Mel GP, 10μΜ ([1]; 501Mel GP, 10μΜ, in %): 9.6 | Cell viability in kinase inhibitor library screening, IGR37 XP, 10μΜ ([2]; 10μΜ): 9.4% | Cell viability in kinase inhibitor library screening, IGR37 XP, 1μΜ ([2]; 1μΜ): 49.7 | Cell viability in kinase inhibitor library screening, A375 XP, 1μΜ ([3]; 1μΜ): 29.1 | Cell viability in kinase inhibitor library screening, A375 XP, 10μΜ ([3]; 10μΜ): 19.4 | Cell viability in kinase inhibitor library screening, A375 GP, 1μΜ ([4]; 1μΜ): 33.7 | Cell viability in kinase inhibitor library screening, A375 GP, 10μΜ ([4]; 10μΜ): 19.6 | Cell viability in kinase inhibitor library screening, 501Mel XP, 1μΜ ([5]; 1μΜ): 21.8 | Cell viability in kinase inhibitor library screening, 501Mel XP, 10μΜ ([5]; 10μΜ): 3.5 | Cell viability in kinase inhibitor library screening, A375 Parental, 10μΜ (A375 cells (parental); 10μΜ): 21.1 | Cell viability in kinase inhibitor library screening, A375 Parental, 1μΜ (A375 cells (parental); 1μΜ): 34.9 | Cell viability in kinase inhibitor library screening, IGR37 GP, 10μΜ ([6]; 10μΜ): 28.2% | Cell viability in kinase inhibitor library screening, IGR37 GP, 1μΜ ([6]; 1μΜ): 63.5 | Cell viability in kinase inhibitor library screening, IGR37 Parental, 10μΜ (IGR37 cells (parental); [7]): 12.3

Cc1ncc(-c2ccnc(Nc3ccc(S(C)(=O)=O)cc3)n2)n1C(C)C [AZD5438]
cell viability (kinase inhibitor library screening) (501Mel cells (parental); 1μΜ): 102.8% | cell viability (kinase inhibitor library screening) (501Mel cells (parental); 10μΜ): 103.6% | cell viability (kinase inhibitor library screening) ([1]; 501Mel GP, 1μΜ): 106.0% | cell viability (kinase inhibitor library screening) ([1]; 501Mel GP, 10μΜ): 93.9% | cell viability (kinase inhibitor library screening) ([2]; 1μΜ): 106.4% | cell viability (kinase inhibitor library screening) ([2]; 10μΜ): 82.4% | cell viability (kinase inhibitor library screening) ([3]; 1μΜ): 105.8% | cell viability (kinase inhibitor library screening) ([3]; 10μΜ): 110.3% | cell viability (kinase inhibitor library screening) ([4]; 1μΜ): 99.9% | cell viability (kinase inhibitor library screening) ([4]; 10μΜ): 102.9% | cell viability (kinase inhibitor library screening) ([5]; 1μΜ): 99.0% | cell viability (kinase inhibitor library screening) ([5]; 10μΜ): 80.3% | cell viability (kinase inhibitor library screening) (A375 cells (parental); 10μΜ): 103.7% | cell viability (kinase inhibitor library screening) (A375 cells (parental); 1μΜ): 106.4% | cell viability (kinase inhibitor library screening) ([6]; 1μΜ): 99.3% | cell viability (kinase inhibitor library screening) ([6]; 10μΜ): 97.8% | cell viability (kinase inhibitor library screening) (IGR37 cells (parental); IGR37 Parental, 1μΜ, 72 h): 103.3% | cell viability (kinase inhibitor library screening) (IGR37 cells (parental); IGR37 Parental, 10μΜ, 72 h): 110.8%
